Test results: patent US12098148B2, “Therapeutic compounds” (C4X Discovery Limited, priority 2018, dated 2024)

What was measured:
[1] = biological target: human KEAP1 (N-term, residues 321-609) (Homo sapiens, UniProt Q14145); assay: biochemical;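 also: fluorescence polarization competition assay of Kelch domain binding to NRF2, 12-point 1:3 dilution series from 10 µM, read after 1 h at room temperature, floor 10 nM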
[2] = tested on: NQO1 mRNA in BEAS-2B cells; assay: Beas2B NQO1 mRNA cell based assay; design: species or system human; conditions: Homo sapiens, BEAS-2B, 24 h, 24 h compound treatment, increase in NQO1 mRNA vs vehicle (0.1% DMSO), read-out: EC50
Procedure, shortened: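 Relative NQO1 transcript level derived by ΔΔCT with human β-actin as internal control, using direct-lysate one-step RT-qPCR. Cells were BEAS-2B, plated overnight then treated with compound for 24 h.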

Chain of human KEAP1 (N-term, residues 321-609) (Q14145 321-609): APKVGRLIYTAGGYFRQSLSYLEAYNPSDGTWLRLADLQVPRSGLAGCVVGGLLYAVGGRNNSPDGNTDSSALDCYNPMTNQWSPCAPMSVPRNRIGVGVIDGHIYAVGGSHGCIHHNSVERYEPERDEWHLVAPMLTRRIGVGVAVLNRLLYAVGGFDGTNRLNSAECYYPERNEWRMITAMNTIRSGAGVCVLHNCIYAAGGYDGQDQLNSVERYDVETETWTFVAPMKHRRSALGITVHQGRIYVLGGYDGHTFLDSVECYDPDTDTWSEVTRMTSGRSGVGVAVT

SMILES	IC50 [1] [nM]	EC50 [2] [nM]
COCCn1nnc(COc2ccc(Cl)c3c2[C@@H](CN2CCCC2=O)N(C(=O)[C@@H]2CCCC[C@]2(C)C(=O)O)CC3)c1C(F)F [Example 145, (1S,2R)-2-((S)-5-chloro-8-((5-(difluoromethyl)-1-(2-methoxyethyl)-1H-1,2,3-triazol-4-yl)methoxy)-1-((2-oxopyrrolidin-1-yl)methyl)-1,2,3,4-tetrahydroisoquinoline-2-carbonyl)-1-methylcyclohexane-1-carboxylic acid]	6.4	4.9
C[C@]1(C(=O)O)CCCC[C@H]1C(=O)N1CCc2c(Cl)cc(F)c(OCc3nnn4c3CCC4)c2[C@H]1CN1CC2(CC2)CC1=O [Example 146, (1S,2R)-2-((S)-5-chloro-8-((5,6-dihydro-4H-pyrrolo[1,2-c][1,2,3]triazol-3-yl)methoxy)-7-fluoro-1-((6-oxo-5-azaspiro[2.4]heptan-5-yl)methyl)-1,2,3,4-tetrahydroisoquinoline-2-carbonyl)-1-methylcyclohexane-1-carboxylic acid]	5.7	0.23
Cn1nnc(COc2c(F)cc(Cl)c3c2[C@@H](CN2CCCC2=O)N(C(=O)[C@@H]2CCCC[C@]2(C)C(=O)O)CC3)c1C(F)F [Example 147, (1S,2R)-2-((S)-5-chloro-8-((5-(difluoromethyl)-1-methyl-1H-1,2,3-triazol-4-yl)methoxy)-7-fluoro-1-((2-oxopyrrolidin-1-yl)methyl)-1,2,3,4-tetrahydroisoquinoline-2-carbonyl)-1-methylcyclohexane-1-carboxylic acid]	5.1	0.29
Cn1ccc(COc2ccc(Cl)c3c2[C@@H](CN2CC4(CC4)CC2=O)N(C(=O)[C@@H]2CCCC[C@]2(C)C(=O)O)CC3)cc1=O [Example 148, (1S,2R)-2-((S)-5-chloro-8-((1-methyl-2-oxo-1,2-dihydropyridin-4-yl)methoxy)-1-((6-oxo-5-azaspiro[2.4]heptan-5-yl)methyl)-1,2,3,4-tetrahydroisoquinoline-2-carbonyl)-1-methylcyclohexane-1-carboxylic acid]	6.6	22
C[C@@H]1CC(=O)N(C[C@@H]2c3c(OCc4nnn(C)c4C(F)F)ccc(Cl)c3CCN2C(=O)[C@H]2CCCC[C@]2(C)C(=O)O)C1 [Example 149, (1S,2S)-2-((S)-5-chloro-8-((5-(difluoromethyl)-1-methyl-1H-1,2,3-triazol-4-yl)methoxy)-1-(((R)-4-methyl-2-oxopyrrolidin-1-yl)methyl)-1,2,3,4-tetrahydroisoquinoline-2-carbonyl)-1-methylcyclohexane-1-carboxylic acid]	28	73
Cn1nnc(COc2ccc(Cl)c3c2[C@@H](CN2CC4(CC4)CC2=O)N(C(=O)[C@@H]2CCCC[C@]2(C)C(=O)O)CC3)c1C(F)(F)F [Example 150, (1S,2R)-2-((S)-5-chloro-8-((1-methyl-5-(trifluoromethyl)-1H-1,2,3-triazol-4-yl)methoxy)-1-((6-oxo-5-azaspiro [2.4]heptan-5-yl)methyl)-1,2,3,4-tetrahydroisoquinoline-2-carbonyl)-1-methylcyclohexane-1-carboxylic acid]	5	0.97
Cn1nnc(COc2ccc(Cl)c3c2[C@@H](CN2CC(C)(C)CC2=O)N(C(=O)[C@@H]2CCCC[C@]2(C)C(=O)O)CC3)c1C(F)F [Example 152, (1S,2R)-2-((S)-5-chloro-8-((5-(difluoromethyl)-1-methyl-1H-1,2,3-triazol-4-yl)methoxy)-1-((4,4-dimethyl-2-oxopyrrolidin-1-yl)methyl)-1,2,3,4-tetrahydroisoquinoline-2-carbonyl)-1-methylcyclohexane-1-carboxylic acid]	7.2	10
Cn1nnc(COc2ccc(Cl)c3c2[C@@H](CN2CC4(CC4)CC2=O)N(C(=O)[C@@H]2CCC[C@]2(C)C(=O)O)CC3)c1C(F)(F)F [Example 153, (1S,2R)-2-((S)-5-chloro-8-((1-methyl-5-(trifluoromethyl)-1H-1,2,3-triazol-4-yl)methoxy)-1-((6-oxo-5-azaspiro [2.4]heptan-5-yl)methyl)-1,2,3,4-tetrahydroisoquinoline-2-carbonyl)-1-methylcyclopentane-1-carboxylic acid]	9	7
Cc1onc(COc2ccc(Cl)c3c2[C@@H](CN2CC4(CC4)CC2=O)N(C(=O)[C@@H]2CCCC[C@]2(C)C(=O)O)CC3)c1C(F)(F)F [Example 154, (1S,2R)-2-((S)-5-chloro-8-((5-methyl-4-(trifluoromethyl)isoxazol-3-yl)methoxy)-1-((6-oxo-5-azaspiro[2.4]heptan-5-yl)methyl)-1,2,3,4-tetrahydroisoquinoline-2-carbonyl)-1-methylcyclohexane-1-carboxylic acid]	9.3	18
C[C@]1(C(=O)O)CCCC[C@H]1C(=O)N1CCc2c(Cl)ccc(OCc3nnn(CC(F)(F)F)c3C(F)F)c2[C@H]1CN1CCCC1=O [Example 155, (1S,2R)-2-((S)-5-chloro-8-((5-(difluoromethyl)-1-(2,2,2-trifluoroethyl)-1H-1,2,3-triazol-4-yl)methoxy)-1-((2-oxopyrrolidin-1-yl)methyl)-1,2,3,4-tetrahydroisoquinoline-2-carbonyl)-1-methylcyclohexane-1-carboxylic acid]	16	4.8
Cc1c(COc2ccc(Cl)c3c2[C@@H](CN2CC4(CC4)CC2=O)N(C(=O)[C@@H]2CCCC[C@]2(C)C(=O)O)CC3)nnn1C [Example 156, (1S,2R)-2-((S)-5-chloro-8-((1,5-dimethyl-1H-1,2,3-triazol-4-yl)methoxy)-1-((6-oxo-5-azaspiro[2.4]heptan-5-yl)methyl)-1,2,3,4-tetrahydroisoquinoline-2-carbonyl)-1-methylcyclohexane-1-carboxylic acid]	5.1	0.29
Cc1onc(COc2ccc(Cl)c3c2[C@@H](CN2CC4(CC4)CC2=O)N(C(=O)[C@@H]2CCCC[C@]2(C)C(=O)O)CC3)c1C(F)F [Example 157, (1S,2R)-2-((S)-5-chloro-8-((4-(difluoromethyl)-5-methylisoxazol-3-yl)methoxy)-1-((6-oxo-5-azaspiro [2.4]heptan-5-yl)methyl)-1,2,3,4-tetrahydroisoquinoline-2-carbonyl)-1-methylcyclohexane-1-carboxylic acid]	5.9	4.9
Cn1cc(COc2ccc(Cl)c3c2[C@@H](CN2CC4(CC4)CC2=O)N(C(=O)[C@@H]2CCCC[C@]2(C)C(=O)O)CC3)nn1 [Example 158, (1S,2R)-2-((S)-5-chloro-8-((1-methyl-1H-1,2,3-triazol-4-yl)methoxy)-1-((6-oxo-5-azaspiro[2.4]heptan-5-yl)methyl)-1,2,3,4-tetrahydroisoquinoline-2-carbonyl)-1-methylcyclohexane-1-carboxylic acid]	6.3	1.2
Cn1nnc(COc2ccc(Cl)c3c2[C@@H](CN2CC4(CC4)CC2=O)N(C(=O)[C@@H]2CCCC[C@]2(C)C(=O)O)CC3)c1C1CC1 [Example 159, (1S,2R)-2-((S)-5-chloro-8-((5-cyclopropyl-1-methyl-1H-1,2,3-triazol-4-yl)methoxy)-1-((6-oxo-5-azaspiro[2.4]heptan-5-yl)methyl)-1,2,3,4-tetrahydroisoquinoline-2-carbonyl)-1-methylcyclohexane-1-carboxylic acid]	6.7	0.22
